{"source": "patent US12226410B2", "about": "“Methods for enhancing cellular clearance of pathological molecules via activation of the cellular protein ykt6” (NORTHWESTERN UNIVERSITY, priority 2019, dated 2025)", "key": {"[1]": {"system": "human A53T a-syn", "experiment": "FTI treatment of DASYN53 mice: soluble and insoluble a-syn in midbrain", "type": "in vivo", "details": "i.p. 0.9 mg/kg, 26d", "text": "(§1) FIGS. 8A, 8B, 8C, 8D, 8E, and 8F. FTI treatment enhances GCase activity and reduces pathological a-syn in transgenic mice. 8A) GCase activity in the midbrain of FTI (LNK-754)-treated DASYN53 mice (treated as in FIG. 7) (n=4, veh; n=5, FTI). 8B & 8C) Quantification of soluble and insoluble a-syn from midbrains of FTI-treated DASYN53 mice normalized to total protein (CBB). Syn211 is selective for human (hu) a-syn; C20 and syn303 detect mouse (ms) and hu a-syn, (n=3, nTg+Veh; n=4, DASYN53+veh; n=5 DASYN53+FTI). 8D) Midbrain TH levels were quantified by western blot of FTI-treated DASYN53 mice (n=3). 8E) Body weight of FTI-treated DASYN53 mice (n=9, nTg+Veh; n=7, DASYN53+veh; n=7 DASYN53+FTI). 8F) Rotarod test of FTI-treated DASYN53 mice (n=12, nTg+Veh; n=7, DASYN53+veh; n=7 DASYN53+FTI). Values are the mean+/−SEM. *p<0.05, **p<0.01, and *** p<0.001. Student's t-test, panel A; ANOVA with Tukey's posthoc test, panels B-F.\nSequential biochemical extraction for the analysis of pathological a-synuclein. Cells were harvested in phosphate buffered saline (PBS), pH 7.4, and pelleted by centrifugation at 400×g for 5 minutes. […] Protein concentration was measured by BCA assay (Pierce). […]"}, "[2]": {"system": "TH protein", "experiment": "FTI treatment of DASYN53 mice: midbrain TH levels", "type": "in vivo", "details": "i.p. 0.9 mg/kg, 26d", "text": "as §1\nTreatment of C57Bl/6 and DASYN53 mice with farnesyltransferase inhibitors. 3 mo old C57BL6 mice were i.p. injected daily with 0.9 mg/kg LNK-754 that was formulated in a vehicle of 0.5% sodium carboxymethylcellulose and filtered before use for 14 days. DASYN53 mice were i.p. injected daily with 0.9 mg/kg LNK-754 as above. Mice were perfused with PBS and the brains (cortex) were rapidly dissected and frozen until analysis. […]"}, "[3]": {"system": "H4 a-syn cells", "experiment": "Immunofluorescence of GCase and LAMP2A in FTI-treated H4 a-syn cells", "type": "cell-based, human", "details": "5 nM FTI", "description": "FIGS. 5A, 5B, 5C, 5D, 5E, 5F, and 5G. Reducing farnesyl-ykt6 enhances SNARE assembly and improves the lysosomal targeting of GCase. 5A) Ykt6 membrane shift analysis of SH-SY5Y cells expressing GFP-ykt6 wt or CS (n=3). 5B) Co-IP of GFP-ykt6 and bet1 in A53T iPSn (n=3). 5C) Ykt6 membrane shift analysis in FTI-treated SH-SY5Y wt a-syn cells or A53T iPSn (5 nM farnesyltransferase inhibitors (FTI) LNK-754 (FTI-1) or LNK-3248 (FTI-2) for 5 days) (n=4). Sec22b was measured to assess specificity. 5D) SEC/western blot of FTI-1 treated SH-SY5Y cells. Quantification is shown below. […]\nFIGS. 14A, 14B, 14C, 14D, 14E, 14F, and 14G. […] 14A) Farnesylation of ykt6 was measured in SH-SY5Y cells expressing GFP-ykt6. […] Biotin was detected with streptavidin-conjugated IRDye800, and normalized to total levels of GFP-ykt6. […] Ykt6 complex levels eluting at ca. 120A were quantified on the right (n=2). […] 14E) Raw quantification data of LAMP2A immunofluorescence intensity of individual cells from H4 cells treated with FTI, +/−ykt6 KD. […] For all quantifications, values are the mean+/−SEM, *p<0.05.\nFor GCase/LAMP2 colocalization, cultures were fixed in 4% PFA in PBS for 20 minutes, then permeabilized in 0.2% saponin in 0.2% glycine buffer as described previously (Mazzulli et al., 2016b). […] Cells were mounted in DAPI-Fluoromount G (Southern Biotech) and analyzed by confocal microscopy as above. […]"}, "[4]": {"experiment": "Pharmacokinetic studies of the FTI", "type": "in vivo, mice", "details": "single oral dose; data not shown", "text": "Farnesyltransferase inhibition activates ykt6 in vivo and reduces pathological aggregation in mice. We next sought to determine if FTIs could activate ykt6 in the brains of mice by first testing their effect in wild-type animals."}}, "data": [{"smiles": "C#Cc1cccc(-c2cc(=O)n(C)c3ccc([C@](O)(c4ccc(Cl)cc4)c4cncn4C)cc23)c1", "note": "[LNK-754]", "values": [{"measurement": "soluble and insoluble A53T a-syn in midbrain extracts", "setting": "[1]", "result": "reduce soluble and insoluble A53T a-syn"}, {"measurement": "TH levels in midbrain", "setting": "[2]", "result": "partially restore TH levels"}, {"measurement": "levels of LAMP2A and GCase by immunostaining", "setting": "[3]", "result": "elevated the levels of LAMP2A and GCase"}, {"measurement": "blood-brain-barrier crossing", "setting": "[4]", "result": "could rapidly cross the blood-brain-barrier"}, {"measurement": "time to clearance from plasma", "setting": "[4]", "result": "≤ 20", "unit": "h"}]}]}
